Assay [1] is described as follows: Compound was evaluated for its ability to inhibit activation of NFkB protease stably expressed in human Jurkat T-cells. The format is cell-based.
The subject of assay [2] is Jurkat. As to the kind of experiment: Ability to decrease IL-2 levels in human Jurkat T-cells. It counts as functional, cell-based.
Assay [3] relates to Jurkat. As to the kind of experiment: Ability to decrease IL-8 levels in human Jurkat T-cells. It counts as functional, cell-based.

Structures are written as SMILES. Square brackets hold non-standard residues; d marks the D form. Peptide text beside a SMILES is read from it. * marks the point of attachment. 1Nal = N[C@@H](Cc1cccc2ccccc12)C(=O)O; 2Nal = N[C@@H](Cc1ccc2ccccc2c1)C(=O)O; Cbz = O=C(OCc1ccccc1)* A value given as a limit tells only on which side of the number the result lay.

`CC(C)C[C@H](NC(=O)OCc1ccccc1)C(=O)N[C@@H](CC(C)C)C(=O)N[C@@H](Cc1ccccc1)C(=O)C(F)(F)C(F)(F)F`: in assay [1], the concentration for half-maximal inhibition (IC50) was greater than 30 µM.
Still for that read-out and setting: the same measure for `CC(C)C[C@H](NC(=O)OCc1ccccc1)C(=O)N[C@@H](CC(C)C)C(=O)N[C@@H](Cc1ccccc1)C(=O)Nc1ccc(C(F)(F)F)cc1`: greater than 30 µM; for `CC(=O)c1cccc(NC(=O)[C@H](CC(C)C)NC(=O)[C@H](CC(C)C)NC(=O)OCc2ccccc2)c1`: greater than 10 µM.
Compound `CC(C)C[C@H](NC(=O)OCc1ccccc1)C(=O)N[C@@H](CC(C)C)C(=O)N[C@@H](Cc1ccccc1)C(=O)C(=O)C(=O)OCc1ccccc1` had a half-inhibitory concentration (IC50) in assay [1] of 20 µM.
On the same count and under the same terms, the figure for `CC(=O)[C@H](Cc1ccccc1)NC(=O)[C@H](CC(C)C)NC(=O)[C@H](CC(C)C)NC(=O)OCc1ccccc1` is greater than 30 µM.
Consider `CC(C)CC(NC(=O)OCc1ccccc1)C(=O)NC(CC(C)C)C(=O)NC(C=O)Cc1ccccc1` (stereo not drawn) (Cbz-Leu-Leu-Phe-aldehyde; configuration not given here), for which the values for the half-inhibitory concentration (IC50) (with Jurkat [2]; in assay [1]; with Jurkat [3]) were 0.9 µM, 2 µM and 2 µM, respectively.
In assay [1], `CC(C)C[C@H](NC(=O)[C@H](Cc1cccc2ccccc12)NC(=O)[C@H](Cc1ccc2ccccc2c1)NC(=O)OCc1ccccc1)C(=O)O` (Cbz-[2Nal]-[1Nal]-Leu-OH) gave a 50% inhibitory concentration (IC50) of 3 µM.
In turn, `CON(C)C(=O)[C@H](Cc1ccccc1)NC(=O)[C@H](CC(C)C)NC(=O)[C@H](CC(C)C)NC(=O)OCc1ccccc1` (stereo in doubt; 4a(L)) returned a concentration for half-maximal inhibition (IC50) in assay [1] of 18 µM.
Regarding `CON(C)C(=O)[C@H](Cc1ccccc1)NC(=O)[C@H](CC(C)C)NC(=O)[C@H](CC(C)C)NC(=O)OCc1ccccc1` (stereo in doubt; 4b(D)), the half-maximal inhibitory concentration (IC50) in assay [1] is greater than 30 µM.
